Test results as given in patent US6706664B1, “Benzoxazole compounds, process for the preparation thereof and herbicides” (UBE Industries, Ltd., priority 1999, dated 2004).

How the values were obtained:
Design in all cases: key: 0: normal development; 1: Less damaged; 2: Slightly damaged; 3: Moderately damaged; 4: Severely damaged; 5: All killed
bulrush = test: Herbicidal test for paddy field; type: in vivo, Scrips juncoides; conditions: paddy field pot, 500 g/ha dropwise at 1.5 leaf stage of barnyardgrass, 3 weeks, rank vs non-treated
Summary of the method: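 Post-flooding water application of 500 g/ha, given at 1.5-leaf barnyardgrass, to plants in Ube alluvial soil held under 3 cm of water. Ratings of 0 to 5 relative to untreated controls were made after three weeks in a glasshouse.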

flat sedge = test: Herbicidal test for paddy field; type: in vivo, Cyperus serotinus; conditions: paddy field pot, 500 g/ha dropwise at 1.5 leaf stage of barnyardgrass, 3 weeks, rank vs non-treated
Description: Wagner pots, each having an area of 1/5000 are, were packed with Ube soil (alluvial soil) and planted with seeds or tubers of young rice plant, barnyardgrass, bulrush, flat sedge and monochoria. Then, the pots were filled with water to a depth of 3 cm.
Each wettable powder of the desired compounds (I) shown in Table 1 prepared in accordance with Example 2 was diluted with water containing a surfactant (0.05%) and subjected to dropwise addition treatment by using pipet so that an effective concentration of the compound (I) in each herbicide became 500 g/ha at 1.5 leaf stage of barnyardgrass.
These plants were controlled in a glass house at an average temperature of 25° C. for 3 weeks, and then herbicidal effects thereof were investigated.
The herbicidal effects are evaluated according to the following 6 ranks as compared with non-treated district.
(0: normal development, 1: Less damaged, 2: Slightly damaged, 3: Moderately damaged, 4: Severely damaged, 5: All killed).

green foxtail [1] = test: Soil treatment test for upland field; type: in vivo, Setaria viridis; conditions: 500 g/ha, glass house 25° C., 3 weeks
Summary of the method: (§1)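 Seeds planted in Wagner pots of Ube soil (alluvial) and covered. Wettable powder diluted in 0.05% surfactant water, sprayed uniformly onto soil at 500 g/ha effective rate. Grown 3 weeks, glasshouse, mean 25° C, then damage rated visually 0–5.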

common lambsquartes = test: Soil treatment test for upland field; type: in vivo, Chenopodium album; conditions: 500 g/ha, glass house 25° C., 3 weeks
Summary of the method: as §1

velvetleaf [2] = test: Soil treatment test for upland field; type: in vivo, Abutilon theophrasti; conditions: 500 g/ha, glass house 25° C., 3 weeks
Summary of the method: as §1

corn = test: Foliar spread test for upland field; type: in vivo; conditions: foliar spray 500 ppm, 3 weeks, rank vs non-treated
Summary of the method: (§2)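 Seeds are planted in pots of volcanic ash soil and grown roughly 2 weeks under glass. Foliage then receives a uniform spray of compound at 500 ppm in water with 0.5% surfactant. Herbicidal damage is rated 0–5 after 3 weeks at an average 25° C.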

solgum = test: Foliar spread test for upland field; type: in vivo; conditions: foliar spray 500 ppm, 3 weeks, rank vs non-treated
Summary of the method: as §2

sugar beat = test: Foliar spread test for upland field; type: in vivo; conditions: foliar spray 500 ppm, 3 weeks, rank vs non-treated
Summary of the method: as §2

wheat = test: Foliar spread test for upland field; type: in vivo; conditions: foliar spray 500 ppm, 3 weeks, rank vs non-treated
Summary of the method: as §2

green foxtail [3] = test: Foliar spread test for upland field; type: in vivo, Setaria viridis; conditions: foliar spray 500 ppm, 3 weeks, rank vs non-treated
Summary of the method: as §2

velvetleaf [4] = test: Foliar spread test for upland field; type: in vivo, Abutilon theophrasti; conditions: foliar spray 500 ppm, 3 weeks, rank vs non-treated
Summary of the method: as §2

cotton = test: Foliar spread test for upland field; type: in vivo; conditions: foliar spray 500 ppm, 3 weeks, rank vs non-treated
Summary of the method: as §2

soybean = test: Foliar spread test for upland field; type: in vivo; conditions: foliar spray 500 ppm, 3 weeks, rank vs non-treated
Summary of the method: as §2

Large crabgrass = test: Foliar spread test for upland field; type: in vivo, Digitaria adscendens; conditions: foliar spray 500 ppm, 3 weeks, rank vs non-treated
Summary of the method: as §2

barnyardgrass = test: Foliar spread test for upland field; type: in vivo, Echinochloa crusgalli; conditions: foliar spray 500 ppm, 3 weeks, rank vs non-treated
Summary of the method: as §2

## CCCC(Oc1cccc(C(F)(F)F)c1)c1nc2cc(C#N)c(C#N)cc2o1 (centres unmarked) [Compound 317]
bulrush
  Effect Bulrush: 3
Flat sedge
  Effect Flat sedge: 5
Green foxtail [1]
  Effects Green foxtail: 5
Common lambsquartes
  Effects Common lambsquarters: 5
Velvetleaf [2]
  Effects Velvetleaf: 5
corn
  Effects Corn: 2
solgum
  Effects Solgum: 1
Sugar beat
  Effects Sugar beat: 5
wheat
  Effects Wheat: 2
Green foxtail [3]
  Effects Green foxtail: 5
Velvetleaf [4]
  Effects Velvetleaf: 3

## CCC(Oc1ccc(Cl)c(C(F)(F)F)c1)c1nc2cc(F)ccc2o1 (centres unmarked) [Compound 441]
Flat sedge
  Effect Flat sedge: 2
Green foxtail [1]
  Effects Green foxtail: 5
Common lambsquartes
  Effects Common lambsquarters: 4
Velvetleaf [2]
  Effects Velvetleaf: 1
corn
  Effects Corn: 2
cotton
  Effects Cotton: 3
solgum
  Effects Solgum: 2
soybean
  Effects Soybean: 3
Sugar beat
  Effects Sugar beat: 4
wheat
  Effects Wheat: 2
Large crabgrass
  Effects Large crabgrass: 2
barnyardgrass
  Effects Barnyardgrass: 2
Green foxtail [3]
  Effects Green foxtail: 3

## CCC(Oc1cccc(C(F)(F)F)c1)c1nc2cc(F)c(C(F)(F)F)cc2o1 (centres unmarked) [Compound 471]
bulrush
  Effect Bulrush: 2
Flat sedge
  Effect Flat sedge: 5
Green foxtail [1]
  Effects Green foxtail: 5
Common lambsquartes
  Effects Common lambsquarters: 5
Velvetleaf [2]
  Effects Velvetleaf: 5
corn
  Effects Corn: 2
solgum
  Effects Solgum: 3
Sugar beat
  Effects Sugar beat: 5
wheat
  Effects Wheat: 2
Large crabgrass
  Effects Large crabgrass: 5
Green foxtail [3]
  Effects Green foxtail: 5
Velvetleaf [4]
  Effects Velvetleaf: 3

## CCC(Oc1cccc(OC(F)(F)F)c1)c1nc2cc(C#N)c(C#N)cc2o1 (centres unmarked) [Compound 527]
bulrush
  Effect Bulrush: 3
Flat sedge
  Effect Flat sedge: 3
Green foxtail [1]
  Effects Green foxtail: 5
Common lambsquartes
  Effects Common lambsquarters: 5
Velvetleaf [2]
  Effects Velvetleaf: 5
solgum
  Effects Solgum: 1
Sugar beat
  Effects Sugar beat: 5
wheat
  Effects Wheat: 2
Large crabgrass
  Effects Large crabgrass: 2
Green foxtail [3]
  Effects Green foxtail: 5
Velvetleaf [4]
  Effects Velvetleaf: 3

## CCC(Oc1cccc(C(F)(F)F)c1)c1nc2cc(C#N)c(Cl)cc2o1 (centres unmarked) [Compound 529]
bulrush
  Effect Bulrush: 5
Flat sedge
  Effect Flat sedge: 4
Green foxtail [1]
  Effects Green foxtail: 5
Common lambsquartes
  Effects Common lambsquarters: 5
Velvetleaf [2]
  Effects Velvetleaf: 5
solgum
  Effects Solgum: 3
Sugar beat
  Effects Sugar beat: 5
wheat
  Effects Wheat: 2
Large crabgrass
  Effects Large crabgrass: 4
barnyardgrass
  Effects Barnyardgrass: 3
Green foxtail [3]
  Effects Green foxtail: 5
Velvetleaf [4]
  Effects Velvetleaf: 3

## CCCC(Oc1cccc(C(F)(F)F)c1)c1nc2cc(C#N)c(Cl)cc2o1 (centres unmarked) [Compound 532]
bulrush
  Effect Bulrush: 5
Flat sedge
  Effect Flat sedge: 2
Green foxtail [1]
  Effects Green foxtail: 5
Common lambsquartes
  Effects Common lambsquarters: 5
Velvetleaf [2]
  Effects Velvetleaf: 5
corn
  Effects Corn: 2
solgum
  Effects Solgum: 2
Sugar beat
  Effects Sugar beat: 5
Large crabgrass
  Effects Large crabgrass: 4
barnyardgrass
  Effects Barnyardgrass: 2
Green foxtail [3]
  Effects Green foxtail: 5
Velvetleaf [4]
  Effects Velvetleaf: 3

## CCCC(Oc1ccc(F)c(C(F)(F)F)c1)c1nc2cc(C#N)c(Cl)cc2o1 (centres unmarked) [Compound 533]
Flat sedge
  Effect Flat sedge: 2
Green foxtail [1]
  Effects Green foxtail: 5
Common lambsquartes
  Effects Common lambsquarters: 5
Velvetleaf [2]
  Effects Velvetleaf: 5
corn
  Effects Corn: 2
solgum
  Effects Solgum: 2
Sugar beat
  Effects Sugar beat: 5
wheat
  Effects Wheat: 2
Large crabgrass
  Effects Large crabgrass: 3
barnyardgrass
  Effects Barnyardgrass: 2
Green foxtail [3]
  Effects Green foxtail: 4
Velvetleaf [4]
  Effects Velvetleaf: 2
